The values that follow come from PMC8566451, “Lead optimization of novel quinolone chalcone compounds by a structure–activity relationship (SAR) study to increase efficacy and metabolic stability” (Scientific Reports, 2021).

Read-outs that look alike come from different tables or passages of the source.

Data set [1] has as its target T1, porcine tubulin (Sus scrofa, UniProt P02550+P02554).
T1 construct: purchased Cytoskeleton Inc., Denver, CO BK011P
The data set can be described thus: In vitro tubulin polymerization assay. It counts as biochemical. As to conditions: 20 µM porcine tubulin; for effect on tubulin polymerization: 3 µM compound, 37 °C, 60 min; for effect on tubulin polymerization at higher concentrations: 10, 15 and 20 µM compound. As to the method:
Spontaneous polymerization of 20 µM porcine tubulin was initiated with the addition of 1 mmol/L GTP at 37 °C and monitored every minute for 60 min in the presence of the indicated concentration of CTR-21, CTR-32, nocodazole, paclitaxel, or a DMSO vehicle control. To make the graph simpler, only 3 µM concentration is shown. […] A modified Dixon plot was used to determine the inhibitory concentration of CTR-21 and CTR-32 (Ki).
Microtubule assembly was assessed using a Tubulin Polymerization assay kit (BK011P; Cytoskeleton Inc., Denver, CO). […] Polymerization was started by incubating at 37 °C and followed by absorbance readings every 1 min at 340 nm for 1 h using a Synergy H4 plate reader.

For data set [2], the system named is peripheral blood mononuclear cells (PBMC). Briefly: PBMC culture and MTS assay. It counts as cell-based, human. The following applies: for GI50: Homo sapiens, 48 h; for Selectivity Index (PBMC): PBMCs versus average GI50 of cancer cells. As for the experimental part: Peripheral blood mononuclear cells from healthy donors were isolated by density gradient centrifugation using Ficoll solution as described below. Blood samples used were supplied by the Canadian Blood Services under the Institutional Research Ethics Board Project # 18–099, and no human participants or volunteers were involved directly in the current study.
Whole blood was gently layered over an equal volume of Ficoll and centrifuged at 800 × g for 20 min with no brake. The Buffy coat was carefully collected by pipetting in 50 mL tubes and topped off with PBS. The cell isolates were subsequently mixed by inversion and centrifuged at 300 × g for 12 min. The supernatant was then carefully aspirated without disturbing the cell pellet, and the PBMCs were resuspended in ammonium-chloride-potassium (ACK) lysis buffer. The tubes were left to stand for 15 min to allow for red blood cell lysis. PBS was again added to the cells and centrifuged at 300 × g for 12 min and pelleted PBMCs were resuspended in RPMI + 10% heat inactivated FBS. Following counting, cells were centrifuged again and cryopreserved with a freezing medium composed of 40% FBS, 10% DMSO and 50% culture medium. Cryovials were placed in a − 80 °C for 24 h prior to transfer to liquid nitrogen for long-term storage.
PBMC cryovials were transferred from liquid nitrogen and placed in a 37 °C water bath until almost completely thawed. 1 mL of pre-warmed medium was added drop-wise and the entire contents of the cryovial was transferred to a 15-mL tube. Pre-warmed medium was then added to bring the volume up to 10 mL. The PBMCs were centrifuged at 300 × g for 10 min, and the cell pellet was gently resuspended with 5 mL of warm medium. The tubes were subsequently placed in a 37 °C incubator in a 5° angled rack for 4 h. An additional 5 mL warm medium containing of 30 units/mL benzonase nuclease was then injected into the cell solution and left to stand at room temperature for 5 min before centrifugation for 10 min at 300 × g. The pelleted cells were resuspended in the medium with 100 units/mL of IL-2 (Cedarlane Laboratories, Burlington, ON, Canada) and a small aliquot was used for cell counting and viability staining. The cells were plated in 96-well plates at a density of 80,000–120,000 cellules/well/100 µL.
Following a 48-h incubation period, eight different concentrations of compound solutions using two to four-fold serial dilutions were added to the cells (100 µl). Cells were incubated for an additional 48 h and cytotoxicity was established using the CellTiter 96 cytotoxicity assay (Promega). 40 μl of the tetrazolium dye was added to each well of the plate and then incubated for 2 h. OD was then read directly at 490 nm using the automated Biotek Synergy H4 plate reader. The GI50 was calculated similarly to the SRB.
Background: Tetrazolium dyes change colour on reduction, which living cells bring about.

Data set [3] deals with HeLa cells. The data set can be described thus: Cell cycle analysis by flow cytometry. The data set is classed as cell-based, human. As for the experimental part: Figure 5 CTR-21 arrests cells at G2/M, eventually leading to cell death by apoptosis. (a) Effects of CTR-21 on the cell cycle progression of HeLa and E112 cells. […] (b) Cell morphology of CTR-21 arrested cells. HeLa cells were treated with 30 nM of CTR-21 for 12 h, fixed with methanol and immunostained with α-tubulin or γ-tubulin, and counterstained with DAPI. Bar = […]. (c) CTR-21 promotes PARP cleavage. […] GAPDH was used as a loading control.
Cell cycle progression was determined using flow cytometry. UKRV-Mel-38 and HeLa cells were plated onto 10 cm plate at a density of 0.5 million and treated them with or without the compounds the following day for 12, 24 or 48 h. Cells were then harvested and centrifuged at 1000 rpm for 5 min, washed in PBS and then fixed with ice-cold ethanol (70%) for at least 24 h at − 20 °C. The cells were centrifuged, re-suspended in PBS solution, followed by centrifugation. The cell pellet was then stained with 100 μg/mL propidium iodide (PI) and 100 μg/mL RNase A in distilled water for at least 1 h. DNA content was measured using a Beckmann Coulter Cytomics FC500 (Beckman Coulter, Fullerton, CA), and the proportion of cell populations in G0/G1, S, and G2/M phases of cell cycle was calculated on the basis of DNA distribution histograms using CXP software (Beckman Coulter, Fullerton, CA).
In general terms: In flow cytometry, cells or beads pass a laser one at a time.

The nature of data set [4]: Microsome metabolism assay. The data set is classed as in vitro ADME, human. The following applies: for half-life at 5 µM: human microsomes (20 mg/ml protein), NADPH, 120 min. As to the method:
(a) CTR-21 is much more metabolically stable than CTR-32. 5 µM of CTR-21 or CTR-32 were incubated with human microsomes (20 mg/ml protein) in the presence of NADPH over the course of 120 min. The lysates were analyzed and % remaining CTR compounds were identified and estimated using HPLC–MS. (b) Summary of structure–activity relationship (SAR) based on activity and metabolic stability.
Microsome metabolism assay was carried out as per manufacturer protocol (ThermoFisher), with 5 µM of starting compound. Analytes were measured on a Waters Xevo G2-XS Quadrupole Time-of-Flight mass spectrometer. Half-life was calculated using exponential one phase decay (GraphPad Prism 5). Hydroxychloroquine was used as an internal standard (500 pg/µL).

Setting [5] is: PBMC #1, MTS, read-out: GI50 PBMC #1.
[6] abbreviates: PBMC #2, MTS, read-out: GI50 PBMC #2.

T1 sequence (P02554 whole entry): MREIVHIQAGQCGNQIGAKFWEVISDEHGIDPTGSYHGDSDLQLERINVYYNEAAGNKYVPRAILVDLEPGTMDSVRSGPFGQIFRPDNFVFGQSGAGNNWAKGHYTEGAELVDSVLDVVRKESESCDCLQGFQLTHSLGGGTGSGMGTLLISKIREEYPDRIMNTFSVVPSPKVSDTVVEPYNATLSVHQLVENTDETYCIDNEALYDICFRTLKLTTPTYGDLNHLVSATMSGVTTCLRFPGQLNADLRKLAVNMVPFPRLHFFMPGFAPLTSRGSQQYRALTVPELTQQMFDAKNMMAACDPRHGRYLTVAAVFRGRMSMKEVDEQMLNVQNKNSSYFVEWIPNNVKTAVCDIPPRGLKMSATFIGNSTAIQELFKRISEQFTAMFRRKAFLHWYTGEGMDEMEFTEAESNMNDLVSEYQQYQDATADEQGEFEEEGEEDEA
T1 sequence (P02550 whole entry): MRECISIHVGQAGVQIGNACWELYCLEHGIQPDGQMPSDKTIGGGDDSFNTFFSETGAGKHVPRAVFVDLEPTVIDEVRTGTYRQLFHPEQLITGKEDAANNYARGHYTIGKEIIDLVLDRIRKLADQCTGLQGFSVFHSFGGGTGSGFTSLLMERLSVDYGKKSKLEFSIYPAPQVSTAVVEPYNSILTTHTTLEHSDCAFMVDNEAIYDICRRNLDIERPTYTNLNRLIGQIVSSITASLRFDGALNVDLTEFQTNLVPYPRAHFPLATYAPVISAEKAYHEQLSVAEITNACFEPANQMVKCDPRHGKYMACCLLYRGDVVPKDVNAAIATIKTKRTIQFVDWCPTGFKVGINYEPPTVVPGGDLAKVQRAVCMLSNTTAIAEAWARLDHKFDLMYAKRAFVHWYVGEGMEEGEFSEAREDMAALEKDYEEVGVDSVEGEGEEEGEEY

The term GI50 denotes the concentration that inhibits growth by half. Usually half-life stands for how long it takes for the measured level to halve. For `COc1ccccc1C(=O)/C=C/c1cc2cccc(OC)c2[nH]c1=O` [CTR-21, (E)-8-methoxy-3-(3-(2-methoxyphenyl)-3-oxoprop-1-enyl) quinolin-2(1H)-one], in data set [1], the “effect on tubulin polymerization” value was “reduced steady-state” and the “effect on tubulin polymerization at higher concentrations” value was “did not appreciably increase the inhibition of tubulin dynamics”. For the same compound, the GI50 in data set [2] (setting [5]) was 1.86 ± 0.336 µM. The 50% growth inhibitory concentration (GI50) in data set [2] (setting [6]) came to 1.63 ± 0.317 µM. Besides, the “Selectivity Index (PBMC)” value in data set [2] is on record as 106. Further, the cell cycle effect entry in data set [3] (HeLa, 30 nM, by 12 h, maintained after 24 h) is given as “arrest in G2/M”. In addition, in data set [4], the half-life at 5 µM was 65.2 min. Besides, the “half-life relative to CTR-32” value in data set [4] (human microsomes) was “almost five times greater”.

For the compound `CCOc1ccccc1C(=O)/C=C/c1cc2ccccc2[nH]c1=O` [CTR-32, (E)-3-(3-(2-ethoxyphenyl)-3-oxoprop-1-enyl)quinolin-2(1H)-one], in data set [1], the “effect on tubulin polymerization” value is given as “does not affect the steady state dynamics or Vmax of tubulin polymerization” and the “effect on tubulin polymerization at higher concentrations” value was “almost completely inhibited the formation of microtubule polymers”. The concentration for 50% growth inhibition (GI50) in data set [2] (setting [5]) was found to be 1.88 ± 0.147 µM. The GI50 in data set [2] (setting [6]) turned out to be 0.787 ± 0.396 µM. In data set [2], the “Selectivity Index (PBMC)” value was 67. In addition, in data set [3] (3× GI50, 12 or 24 h, HeLa and UKRV-Mel-38 (Supplemental Fig. S11)), the cell cycle effect entry is on record as “arrests the cells in G2/M”. In data set [4], the half-life at 5 µM came out at 13.7 min.
